According to patent US20240425496A1, “AZETIDINYL PYRIMIDINES AND USES THEREOF” (Aerie Pharmaceuticals, Inc., priority 2021, published 2024):

Legend:
TYK2 = TYK2 (Homo sapiens (Human), UniProt P29597); assay: JAK kinase assay (KINASE-GLO luminescent), TYK2 enzyme; format: biochemical; conditions: TYK2 enzyme 10 nM, Abl peptide substrate
Summary of the method: (§1)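 Kinase-Glo luminescence measures ATP remaining after 75 min at room temperature; ATP 2 μM in 4× stock. 11-point 1:5 dilutions, 2.5% DMSO final. Percent of DMSO control per concentration, IC50 by 4-parameter logistic fit.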

JAK1 = JAK1 (Homo sapiens (Human), UniProt P23458); assay: JAK kinase assay (KINASE-GLO luminescent), JAK1 enzyme; format: biochemical; conditions: JAK1 enzyme 10 nM, Abl peptide substrate
Summary of the method: as §1

Chain of TYK2 (P29597 whole entry, species assumed): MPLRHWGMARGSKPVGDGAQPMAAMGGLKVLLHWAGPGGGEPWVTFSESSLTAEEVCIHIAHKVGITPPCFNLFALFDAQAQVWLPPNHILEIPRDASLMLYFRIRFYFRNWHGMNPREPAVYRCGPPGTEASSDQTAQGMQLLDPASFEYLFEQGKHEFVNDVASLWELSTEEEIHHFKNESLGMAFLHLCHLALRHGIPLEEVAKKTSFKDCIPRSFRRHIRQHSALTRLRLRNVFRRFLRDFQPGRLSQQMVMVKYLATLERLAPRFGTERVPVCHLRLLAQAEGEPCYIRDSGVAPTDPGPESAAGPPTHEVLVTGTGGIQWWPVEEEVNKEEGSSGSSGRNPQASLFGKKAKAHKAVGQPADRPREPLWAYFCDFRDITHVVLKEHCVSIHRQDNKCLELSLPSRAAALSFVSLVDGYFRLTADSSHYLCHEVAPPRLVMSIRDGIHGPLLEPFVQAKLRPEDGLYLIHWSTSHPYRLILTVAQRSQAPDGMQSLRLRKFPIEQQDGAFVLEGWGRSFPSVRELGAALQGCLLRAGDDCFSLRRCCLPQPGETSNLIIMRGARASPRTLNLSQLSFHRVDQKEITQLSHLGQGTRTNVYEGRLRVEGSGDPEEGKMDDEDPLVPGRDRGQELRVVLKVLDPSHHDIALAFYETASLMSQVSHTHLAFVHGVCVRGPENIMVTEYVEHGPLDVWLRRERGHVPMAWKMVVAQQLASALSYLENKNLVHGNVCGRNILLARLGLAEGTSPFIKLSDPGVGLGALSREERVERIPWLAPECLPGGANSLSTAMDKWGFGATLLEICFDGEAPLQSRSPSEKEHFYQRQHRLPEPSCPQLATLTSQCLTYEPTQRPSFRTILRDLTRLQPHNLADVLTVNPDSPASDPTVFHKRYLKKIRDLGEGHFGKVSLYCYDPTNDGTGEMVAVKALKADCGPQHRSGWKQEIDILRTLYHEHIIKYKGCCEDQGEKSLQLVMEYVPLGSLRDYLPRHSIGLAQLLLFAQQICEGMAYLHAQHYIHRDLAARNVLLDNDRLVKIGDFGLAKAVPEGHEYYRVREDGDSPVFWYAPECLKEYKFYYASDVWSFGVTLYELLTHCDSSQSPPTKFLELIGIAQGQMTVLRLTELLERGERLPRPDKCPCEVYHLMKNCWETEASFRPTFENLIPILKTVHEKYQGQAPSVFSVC
Chain of JAK1 (P23458 whole entry, species assumed): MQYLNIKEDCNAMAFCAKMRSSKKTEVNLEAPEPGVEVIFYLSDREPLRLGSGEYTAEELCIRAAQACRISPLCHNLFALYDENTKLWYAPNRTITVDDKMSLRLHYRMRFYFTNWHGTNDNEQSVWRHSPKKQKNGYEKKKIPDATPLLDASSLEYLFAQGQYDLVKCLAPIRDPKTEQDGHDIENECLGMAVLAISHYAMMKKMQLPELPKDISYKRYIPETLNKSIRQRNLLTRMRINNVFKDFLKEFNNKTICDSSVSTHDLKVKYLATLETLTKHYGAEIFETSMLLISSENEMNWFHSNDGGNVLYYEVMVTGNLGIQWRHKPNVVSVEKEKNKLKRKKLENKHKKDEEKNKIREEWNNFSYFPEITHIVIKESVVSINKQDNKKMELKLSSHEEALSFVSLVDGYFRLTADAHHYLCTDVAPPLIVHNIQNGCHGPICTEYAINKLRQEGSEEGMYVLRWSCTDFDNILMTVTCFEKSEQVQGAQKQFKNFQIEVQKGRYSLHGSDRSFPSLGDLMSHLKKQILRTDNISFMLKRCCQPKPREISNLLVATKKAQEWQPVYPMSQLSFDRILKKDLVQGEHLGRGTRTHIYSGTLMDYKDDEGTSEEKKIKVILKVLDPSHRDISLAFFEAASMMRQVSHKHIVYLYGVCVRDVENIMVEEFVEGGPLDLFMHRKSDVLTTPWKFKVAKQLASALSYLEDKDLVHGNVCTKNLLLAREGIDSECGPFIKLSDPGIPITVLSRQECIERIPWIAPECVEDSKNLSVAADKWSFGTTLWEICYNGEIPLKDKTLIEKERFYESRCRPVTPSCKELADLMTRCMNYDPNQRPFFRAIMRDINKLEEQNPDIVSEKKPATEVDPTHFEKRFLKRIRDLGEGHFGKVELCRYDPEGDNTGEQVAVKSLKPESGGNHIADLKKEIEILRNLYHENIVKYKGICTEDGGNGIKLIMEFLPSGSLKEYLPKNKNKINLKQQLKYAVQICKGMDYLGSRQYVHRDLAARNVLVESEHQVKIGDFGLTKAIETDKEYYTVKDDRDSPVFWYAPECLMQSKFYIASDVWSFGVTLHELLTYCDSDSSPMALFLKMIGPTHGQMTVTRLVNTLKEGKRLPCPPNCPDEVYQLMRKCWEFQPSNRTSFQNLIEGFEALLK

SMILES | IC50 (TYK2) [nM] | IC50 (JAK1) [nM]
Cc1cnc(Nc2ccc(C3(O)COC3)cc2)nc1N1CC(CC#N)(N2CCN(C)CC2)C1 [E79a] | < 10 | < 50
Cc1cc(Nc2ncc(C)c(N3CC(CC#N)(N4CCN5C[C@@H](F)C[C@H]5C4)C3)n2)sn1 [E52B] | < 10 | < 10
Cc1cc(Nc2ncc(C)c(N3C4CC3CN(CC#N)C4)n2)sn1 [E117-V] | < 50 | < 50
Cc1cc(Nc2ncc(C)c(N3CC(CC#N)(N4CCN5CC6(CC6)C[C@H]5C4)C3)n2)sn1 [E117-G] | < 5 | < 5
Cc1cc(Nc2ncc(C)c(N3CC(CC#N)(N4CCN(CCF)CC4)C3)n2)sn1 [E55a] | < 10 | < 10
Cc1cc(Nc2ncc(C)c(N3CC(CC#N)(N4CCN(C)C5(COC5)C4)C3)n2)sn1 [E46] | < 10 | < 20
Cc1cc(Nc2ncc(C)c(N3CC(CC#N)(N4CCN(C5CCC5)CC4)C3)n2)sn1 [E64a] | < 10 | < 10
Cc1cc(Nc2ncc(C)c(N3CC(CC#N)(N4CCCCCC4)C3)n2)sn1 [E33] | < 10 | < 10
Cc1cc(Nc2ncc(C)c(N3CC(CC#N)(N4C5CC4CN(C)C5)C3)n2)sn1 [E50] | < 400 | < 250
Cc1cc(Nc2ncc(C)c(N3CC(CC#N)(N4CCC(F)(F)CC4)C3)n2)sn1 [E117-E] | < 5 | < 5
Cc1cc(Nc2ncc(C)c(N3CC(CC#N)(N4CC5C(C4)C5(F)F)C3)n2)sn1 (stereo not shown) [E29] | < 10 | < 10
C#CCC1(O)CN(c2nc(Nc3cc(C)ns3)ncc2C)C1 [E63a] | < 50 | < 100
Cc1cc(Nc2ncc(C)c(N3CC(CC#N)(N4CCN5CCCC[C@H]5C4)C3)n2)sn1 [E80a] | < 10 | < 10
COCCN1CCN(C2(CC#N)CN(c3nc(Nc4cc(C)ns4)ncc3C)C2)CC1 [E75] | < 10 | < 10
Cc1cc(Nc2ncc(C)c(N3CC(CC#N)(N4CCN5CC6CC5(C6)C4)C3)n2)sn1 [E86a] | < 20 | < 100
Cc1cc(Nc2ncc(C)c(N3CC(CC#N)(N4CC(C5CC5)C4)C3)n2)sn1 [E11] | < 10 | < 10
Cc1cc(Nc2ncc(C)c(N3CC(N4CCN5C[C@H](F)C[C@H]5C4)C3)n2)sn1 [E110a] | < 10 | < 50
Cc1cc(Nc2ncc(C)c(N3CC(CC#N)(N4C[C@@H]5OCCO[C@@H]5C4)C3)n2)sn1 [E92a] | < 10 | < 10
Cc1cc(Nc2ncc(C)c(N3CC(CC#N)(N4CCC(F)CC4)C3)n2)sn1 [E17] | < 10 | < 10
COC(=O)CC1(N2CCN3CCC[C@H]3C2)CN(c2nc(Nc3cc(C)ns3)ncc2C)C1 [E100a] | < 10 | < 10

SMILES | IC50 (TYK2) [nM] | IC50 (JAK1) [nM]
Cc1cc(Nc2ncc(C)c(N3CC(CC#N)(N4CCN5CCC[C@@]5(C)C4)C3)n2)sn1 [E84a] | < 10 | < 10
Cc1cc(Nc2ncc(C)c(N3CC(CC#N)(N4CCC4)C3)n2)sn1 [E12] | < 10 | < 10
Cc1cc(Nc2ncc(C)c(N3CC(CC#N)(N4C[C@@H](C)N(C)[C@H](C)C4)C3)n2)sn1 [E35] | < 10 | < 50
COc1cnc(Nc2cc(C)ns2)nc1N1CC(CC#N)(N2CCCCC2)C1 [E24] | < 50 | < 50
Cc1cc(Nc2ncc(C)c(N3CC(CC#N)(N4CCN5CCCC[C@@H]5C4)C3)n2)sn1 [E85a] | < 10 | < 50
Cc1cc(Nc2ncc(C)c(N3CC(CC#N)(N4CC5CN(C)CC5C4)C3)n2)sn1 (stereo not shown) [E105a] | < 50 | < 100
Cc1cc(Nc2ncc(C)c(N3CC(CC#N)(N(C)C4CC4)C3)n2)sn1 [E13] | < 10 | < 10
Cc1cc(Nc2ncc(C)c(N3CC(CC#N)(N4CCn5cncc5C4)C3)n2)sn1 [E93a] | < 10 | < 10
Cc1cnc(Nc2ccc(N3CCOCC3)c(F)c2)nc1N1CC(CC#N)(N2CCCCC2)C1 [E119] | < 10 | < 25
Cc1cc(Nc2ncc(C)c(N3CC(CC#N)(N4CCN(C)C(CCF)C4)C3)n2)sn1 (stereo not shown) [E117-R] | < 5 | < 10
Cc1cc(Nc2ncc(C)c(N3CC(CC#N)(N4CCCN5CCC[C@H]5C4)C3)n2)sn1 [E87a] | < 10 | < 10
Cc1cc(Nc2ncc(C)c(N3CC(CC#N)(N4CCN5CCN(C)CC5C4)C3)n2)sn1 (stereo not shown) [E73a] | < 100 | < 100
Cc1cc(Nc2ncc(C)c(N3CC(CC#N)(N4CCC5(CC4)CC5(F)F)C3)n2)sn1 [E22] | < 10 | < 10
Cc1cnc(Nc2ccc(N3CCOCC3)cc2)nc1N1CC(CC#N)(N2CCN(C)CC2)C1 [E118] | < 10 | < 50
Cc1cc(Nc2ncc(C)c(N3CC(CC#N)(N4CCN5C[C@H](F)C[C@@H]5C4)C3)n2)sn1 [E75a] | < 10 | < 50
Cc1cc(Nc2ncc(C)c(N3CC(CC#N)(CN4CCN5C[C@H](F)C[C@H]5C4)C3)n2)sn1 [E117-Y] | < 50 | < 100
CCOC(=O)CC1(N2CCCCC2)CN(c2nc(Nc3cc(C)ns3)ncc2C)C1 [E65a] | < 50 | < 1000
Cc1cc(Nc2ncc(C)c(N3CC(CC#N)(N4CC5CC(C4)C5(F)F)C3)n2)sn1 [E31] | < 10 | < 10
Cc1cc(Nc2ncc(C)c(N3CC(CC#N)(N4CC5(CC5)C4)C3)n2)sn1 [E95a] | < 10 | < 50
Cc1cc(Nc2ncc(C)c(N3CC(CC#N)(N4CCN5CCC5C4)C3)n2)sn1 (stereo not shown) [E89a] | < 50 | < 100

Results, then the compound that gave them:

IC50 (TYK2) [nM] | IC50 (JAK1) [nM] | SMILES
< 100 | < 50 | CCC1(N2CCN3C[C@H](F)C[C@H]3C2)CN(c2nc(Nc3cnn(C)c3)ncc2C)C1 [E170a]
< 20 | < 50 | CCS(=O)(=O)NC1(CC#N)CN(c2nc(Nc3cc(C)ns3)ncc2C)C1 [E301]
< 20 | < 20 | Cc1cnc(Nc2cnn(C)c2)nc1N1CC(CCC#N)(N2CCN3C[C@H](F)C[C@H]3C2)C1 [E168a]
< 10 | < 10 | Cc1cnc(Nc2ccc3c(c2)CN(C)C3)nc1N1CC(CC#N)(N2CCN3C[C@H](F)C[C@H]3C2)C1 [E216]
< 50 | < 20 | Cc1cc(Nc2ncc(C)c(N3CC(CC#N)(NC(=O)c4ccc(F)c(F)c4)C3)n2)sn1 [E313]
< 50 | < 50 | COc1ccc(CNC2(CC#N)CN(c3nc(Nc4cc(C)ns4)ncc3C)C2)cc1 [E288, 2-(3-((4-methoxybenzyl)amino)-1-(5-methyl-2-((3-methylisothiazol-5-yl)amino)pyrimidin-4-yl)azetidin-3-yl)acetonitrile]
< 10 | < 10 | Cc1cnc(Nc2cnn(C)c2)nc1N1CC(CC#N)(N2CCN3CC(F)(F)C[C@H]3C2)C1 [E157a]
< 10 | < 10 | Cc1cc(Nc2ncc(C)c(N3CC(CC#N)(NCC4CCC(F)C4)C3)n2)sn1 (stereo not shown) [E359]
< 50 | < 50 | Cc1cc(Nc2ncc(C)c(N3CC(CC#N)(NC(=O)c4ccncc4)C3)n2)sn1 [E298]
< 10 | < 10 | Cc1cc(Nc2ncc(C)c(N3CC(CC#N)(NCc4cccc(Cl)c4)C3)n2)sn1 [E350]
< 10 | < 10 | Cc1cc(Nc2ncc(C)c(N3CC(CC#N)(NC(=O)c4cccc(Cl)c4)C3)n2)sn1 [E314]
< 50 | < 50 | Cc1cnc(Nc2cccnc2)nc1N1CC(CC#N)(N2CCN3CCCC[C@H]3C2)C1 [E216-T]
< 10 | < 10 | Cc1cnc(Nc2cnn(C)c2)nc1N1CC(CC#N)(N2CCN3CCCC[C@H]3C2)C1 [E171a]
< 10 | < 20 | Cc1cc(Nc2ncc(C)c(N3CC(CC#N)(NCc4ccc(F)cc4F)C3)n2)sn1 [E295, 2-(3-((2,4-difluorobenzyl)amino)-1-(5-methyl-2-((3-methylisothiazol-5-yl)amino)pyrimidin-4-yl)azetidin-3-yl)acetonitrile]
< 20 | < 20 | Cc1cnc(Nc2cnn(C)c2)nc1N1CC(CC#N)(N2CC3(C2)CC3(F)F)C1 [E161a]
< 50 | < 20 | Cc1cnc(Nc2cccc(CN(C)C)c2)nc1N1CC(C)(NC(=O)c2cccc(F)c2)C1 [E310]
< 10 | < 10 | CCC1(NC(=O)c2cccc(F)c2)CN(c2nc(Nc3cc(C)ns3)ncc2C)C1 [E318B]
< 10 | < 50 | Cc1cnc(Nc2ccc(N3CCN(C)CC3)cc2)nc1N1CC(CC#N)(N(C)C2CC2)C1 [E213]
< 10 | < 10 | Cc1cc(Nc2ncc(C)c(N3CC(CC#N)(NC(=O)C4CCCC(F)(F)C4)C3)n2)sn1 (stereo not shown) [E356]
< 50 | < 50 | Cc1cc(Nc2ncc(C)c(N3CC(CC#N)(NC(=O)C4CCCCC4(F)F)C3)n2)sn1 (stereo not shown) [E354]
< 10 | < 10 | Cc1cnc(Nc2ccc3c(c2)CN(C)C3)nc1N1CC(CC(F)F)(C2CC2)C1 [E216-A]
< 10 | < 20 | Cc1cnc(Nc2ccccc2)nc1N1CC(CC#N)(N2CCN3CCCC[C@H]3C2)C1 [E216-F]
< 20 | < 20 | Cc1cc(Nc2ncc(C)c(N3CC(CC#N)(NC(=O)NCC(F)(F)F)C3)n2)sn1 [E293, 1-(3-(cyanomethyl)-1-(5-methyl-2-((3-methylisothiazol-5-yl)amino)pyrimidin-4-yl)azetidin-3-yl)-3-(2,2,2-trifluoroethyl)urea]
< 50 | < 50 | Cc1cc(Nc2ncc(C)c(N3CC(C)(CNC(=O)C4CNCC4(F)F)C3)n2)sn1 (stereo not shown) [E286]
< 200 | < 1000 | COC(=O)CC1(N2CCN3C[C@H](F)C[C@H]3C2)CN(c2nc(Nc3cnn(C)c3)ncc2C)C1 [E166a]
